# Assay results as given in EP3717657B1, “A SYSTEM FOR ASSESSING MICROBIAL SUSCEPTIBILITY TO ANTIBIOTIC AGENTS” (Ascilion AB, priority 2017, dated 2019).
# How the values were obtained:
# [1] = test system: Escherichia coli (ATCC 25922); assay: Antibiotic susceptibility by glucose consumption in culture medium, blood culture bottle inoculum (Example 1); format: cell-based; details: for Glucose concentration t=0: 0 minutes; for Glucose concentration t=60: 60 minutes; for Glucose concentration t=120: 120 minutes; for Glucose concentration t=180: 180 minutes; for dC/dT: rate of change in glucose concentration; for Glucose concentration t=240: 240 minutes;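 for dC/dT: rate calculated between the 60 and 180 min readings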
# Method: (§1) Strains of Escherichia coli (ATCC 25922), Enterococcus faecalis (ATCC 29212) and Staphylococcus aureus (ATCC 29213) were inoculated in blood culture bottles (SVA, Uppsala, Sweden) and cultivated according to the manufacturer's instructions until positive.
# (§2) Medium from each blood culture bottle was diluted 1:100 with cation adjusted Mueller-Hinton broth (SVA, Uppsala, Sweden) supplemented with glucose to a concentration of 1.0 mg/mL.
# (§3) Table 1: Concentrations of antibiotic agents are given in µg/mL.
# (§4) Glucose concentrations were measured at 0, 60, 120, 180, and 240 minutes using a WaveSense Jazz glucometer (AgaMatrix, Inc., Salem, NH, USA) with accompanying test strips.
# (§5) Susceptibility scores corresponding to MIC values were calculated as described above. A 80% threshold was applied, i.e. the lowest concentration of antibiotic that entailed a rate of change in glucose concentration that was equal to or less than 80% of the reference was selected as the Minimal Inhibitory Concentration. The rate of change was calculated between the measurements at 60 and 180 minutes.
# [2] = test system: Enterococcus faecalis (ATCC 29212); assay: as above; format: cell-based; details: for Glucose concentration t=0: 0 minutes; for Glucose concentration t=60: 60 minutes; for Glucose concentration t=120: 120 minutes; for Glucose concentration t=180: 180 minutes; for dC/dT: rate of change in glucose concentration; for Glucose concentration t=240: 240 minutes;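 for dC/dT: rate calculated between the 60 and 180 min readings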
# Method: as §1, §2, §3, §4, §5
substance,measurement,setting,value
Gentamicin,MIC Measured,"[1]; E.coli, 80% threshold of rate of change vs reference, between 60 and 180 minutes, obtained in 4 hours",1 µg/mL
same,F=the rate of change in glucose concentration in relation to the reference,"[1]; [Ab] 0,5 µg/mL",121%
same,Glucose concentration t=0,"[1]; [Ab] 0,5 µg/mL",144
same,Glucose concentration t=60,"[1]; [Ab] 0,5 µg/mL",147
same,Glucose concentration t=120,"[1]; [Ab] 0,5 µg/mL",147
same,Glucose concentration t=180,"[1]; [Ab] 0,5 µg/mL",72
same,dC/dT,"[1]; [Ab] 0,5 µg/mL",75
same,F=the rate of change in glucose concentration in relation to the reference,"[1]; [Ab] 0,25 µg/mL",139%
same,Glucose concentration t=0,"[1]; [Ab] 0,25 µg/mL",149
same,Glucose concentration t=60,"[1]; [Ab] 0,25 µg/mL",152
same,Glucose concentration t=120,"[1]; [Ab] 0,25 µg/mL",144
same,Glucose concentration t=180,"[1]; [Ab] 0,25 µg/mL",58
same,dC/dT,"[1]; [Ab] 0,25 µg/mL",86
same,F=the rate of change in glucose concentration in relation to the reference,[1]; [Ab] 1 µg/mL,77%
same,Glucose concentration t=0,[1]; [Ab] 1 µg/mL,144
same,Glucose concentration t=60,[1]; [Ab] 1 µg/mL,155
same,Glucose concentration t=120,[1]; [Ab] 1 µg/mL,148
same,Glucose concentration t=180,[1]; [Ab] 1 µg/mL,111
same,Glucose concentration t=240,[1]; [Ab] 1 µg/mL,53
same,dC/dT,[1]; [Ab] 1 µg/mL,48
same,F=the rate of change in glucose concentration in relation to the reference,[1]; [Ab] 2 µg/mL,9%
same,Glucose concentration t=60,[1]; [Ab] 2 µg/mL,161
same,Glucose concentration t=120,[1]; [Ab] 2 µg/mL,151
same,Glucose concentration t=180,[1]; [Ab] 2 µg/mL,143
same,Glucose concentration t=240,[1]; [Ab] 2 µg/mL,140
same,dC/dT,[1]; [Ab] 2 µg/mL,6
same,F=the rate of change in glucose concentration in relation to the reference,[1]; [Ab] 4 µg/mL,7%
same,Glucose concentration t=0,[1]; [Ab] 4 µg/mL,147
same,Glucose concentration t=60,[1]; [Ab] 4 µg/mL,163
same,Glucose concentration t=120,[1]; [Ab] 4 µg/mL,157
same,Glucose concentration t=180,[1]; [Ab] 4 µg/mL,148
same,Glucose concentration t=240,[1]; [Ab] 4 µg/mL,148
same,dC/dT,[1]; [Ab] 4 µg/mL,5
same,F=the rate of change in glucose concentration in relation to the reference,[1]; [Ab] 8 µg/mL,7%
same,Glucose concentration t=0,[1]; [Ab] 8 µg/mL,144
same,Glucose concentration t=60,[1]; [Ab] 8 µg/mL,156
same,Glucose concentration t=120,[1]; [Ab] 8 µg/mL,153
same,Glucose concentration t=180,[1]; [Ab] 8 µg/mL,150
same,Glucose concentration t=240,[1]; [Ab] 8 µg/mL,144
same,dC/dT,[1]; [Ab] 8 µg/mL,5
same,F=the rate of change in glucose concentration in relation to the reference,[1]; [Ab] 16 µg/mL,1%
same,Glucose concentration t=0,[1]; [Ab] 16 µg/mL,143
same,Glucose concentration t=60,[1]; [Ab] 16 µg/mL,155
same,Glucose concentration t=120,[1]; [Ab] 16 µg/mL,152
same,Glucose concentration t=180,[1]; [Ab] 16 µg/mL,149
same,Glucose concentration t=240,[1]; [Ab] 16 µg/mL,153
same,dC/dT,[1]; [Ab] 16 µg/mL,1
same,F=the rate of change in glucose concentration in relation to the reference,[1]; [Ab] 32 µg/mL,6%
same,Glucose concentration t=0,[1]; [Ab] 32 µg/mL,148
same,Glucose concentration t=60,[1]; [Ab] 32 µg/mL,158
same,Glucose concentration t=120,[1]; [Ab] 32 µg/mL,155
same,Glucose concentration t=180,[1]; [Ab] 32 µg/mL,150
same,Glucose concentration t=240,[1]; [Ab] 32 µg/mL,147
same,dC/dT,[1]; [Ab] 32 µg/mL,4
same,MIC Measured,"[2]; E.faecalis, 80% threshold of rate of change vs reference, between 60 and 180 minutes, obtained in 4 hours",2 µg/mL
same,F=the rate of change in glucose concentration in relation to the reference,"[2]; [Ab] 0,5 µg/mL",148%
same,Glucose concentration t=0,"[2]; [Ab] 0,5 µg/mL",146
same,Glucose concentration t=60,"[2]; [Ab] 0,5 µg/mL",160
same,Glucose concentration t=120,"[2]; [Ab] 0,5 µg/mL",138
same,Glucose concentration t=180,"[2]; [Ab] 0,5 µg/mL",97
same,dC/dT,"[2]; [Ab] 0,5 µg/mL",53
same,F=the rate of change in glucose concentration in relation to the reference,"[2]; [Ab] 0,25 µg/mL",144%
same,Glucose concentration t=0,"[2]; [Ab] 0,25 µg/mL",142
same,Glucose concentration t=60,"[2]; [Ab] 0,25 µg/mL",156
same,Glucose concentration t=120,"[2]; [Ab] 0,25 µg/mL",143
same,Glucose concentration t=180,"[2]; [Ab] 0,25 µg/mL",87
same,dC/dT,"[2]; [Ab] 0,25 µg/mL",52
same,F=the rate of change in glucose concentration in relation to the reference,[2]; [Ab] 1 µg/mL,106%
same,Glucose concentration t=0,[2]; [Ab] 1 µg/mL,145
same,Glucose concentration t=60,[2]; [Ab] 1 µg/mL,150
same,Glucose concentration t=120,[2]; [Ab] 1 µg/mL,138
same,Glucose concentration t=180,[2]; [Ab] 1 µg/mL,100
same,Glucose concentration t=240,[2]; [Ab] 1 µg/mL,36
same,dC/dT,[2]; [Ab] 1 µg/mL,38
same,F=the rate of change in glucose concentration in relation to the reference,[2]; [Ab] 2 µg/mL,75%
same,Glucose concentration t=0,[2]; [Ab] 2 µg/mL,147
same,Glucose concentration t=60,[2]; [Ab] 2 µg/mL,156
same,Glucose concentration t=120,[2]; [Ab] 2 µg/mL,143
same,Glucose concentration t=180,[2]; [Ab] 2 µg/mL,110
same,Glucose concentration t=240,[2]; [Ab] 2 µg/mL,75
same,dC/dT,[2]; [Ab] 2 µg/mL,27
same,F=the rate of change in glucose concentration in relation to the reference,[2]; [Ab] 4 µg/mL,46%
same,Glucose concentration t=0,[2]; [Ab] 4 µg/mL,147
same,Glucose concentration t=60,[2]; [Ab] 4 µg/mL,154
same,Glucose concentration t=120,[2]; [Ab] 4 µg/mL,151
same,Glucose concentration t=180,[2]; [Ab] 4 µg/mL,118
same,Glucose concentration t=240,[2]; [Ab] 4 µg/mL,104
same,dC/dT,[2]; [Ab] 4 µg/mL,17
same,F=the rate of change in glucose concentration in relation to the reference,[2]; [Ab] 8 µg/mL,14%
same,Glucose concentration t=0,[2]; [Ab] 8 µg/mL,143
same,Glucose concentration t=60,[2]; [Ab] 8 µg/mL,155
same,Glucose concentration t=120,[2]; [Ab] 8 µg/mL,134
same,Glucose concentration t=180,[2]; [Ab] 8 µg/mL,136
same,Glucose concentration t=240,[2]; [Ab] 8 µg/mL,140
same,dC/dT,[2]; [Ab] 8 µg/mL,5
same,F=the rate of change in glucose concentration in relation to the reference,[2]; [Ab] 16 µg/mL,18%
same,Glucose concentration t=0,[2]; [Ab] 16 µg/mL,147
same,Glucose concentration t=60,[2]; [Ab] 16 µg/mL,160
same,Glucose concentration t=120,[2]; [Ab] 16 µg/mL,152
same,Glucose concentration t=180,[2]; [Ab] 16 µg/mL,155
same,dC/dT,[2]; [Ab] 16 µg/mL,6
same,F=the rate of change in glucose concentration in relation to the reference,[2]; [Ab] 32 µg/mL,3%
same,Glucose concentration t=0,[2]; [Ab] 32 µg/mL,143
same,Glucose concentration t=60,[2]; [Ab] 32 µg/mL,151
same,Glucose concentration t=180,[2]; [Ab] 32 µg/mL,142
same,Glucose concentration t=240,[2]; [Ab] 32 µg/mL,148
same,dC/dT,[2]; [Ab] 32 µg/mL,1
